Measured values taken from the supplement of paper PMC10307832.

Assays:
Assay in all cases: relative viability (nuclei count vs DMSO), 5 days (fraction); higher = more cells survive
[1] = compound: CN1CCC(CNc2ccc3ncc(-c4cccc(OC(F)(F)F)c4)n3n2)CC1 [SGI-1776] + CC(=O)c1c(C)c2cnc(Nc3ccc(N4CCNCC4)cn3)nc2n(C2CCCC2)c1=O [Palbociclib] (partner 0.5 µM)
Summary of the method: (§1)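 Five library-drug doses in √10 steps were combined with a fixed anchor-drug dose, or a single drug was given alone, by pin tool to lung cancer cell lines in 1536-well plates the day after seeding. Nuclei were stained and counted after 5 days. Relative viability is the nuclei count in treated wells over that in vehicle wells, taken as the median of duplicate plates.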

[2] = compound: Nc1ccccc1NC(=O)c1ccc(CNC(=O)OCc2cccnc2)cc1 [Entinostat] + CC(=O)c1c(C)c2cnc(Nc3ccc(N4CCNCC4)cn3)nc2n(C2CCCC2)c1=O [Palbociclib] (partner 0.5 µM)
Summary of the method: as §1

[3] = compound: CN1CCC(CNc2ccc3ncc(-c4cccc(OC(F)(F)F)c4)n3n2)CC1 [SGI-1776] + C[C@]1(O)C[C@@H](c2nc(-c3ccc4ccc(-c5ccccc5)nc4c3)c3c(N)nccn32)C1 [Linsitinib] (partner 1 µM)
Summary of the method: as §1

[4] = compound: C1COCCN1C2=NC(=NC3=C2OC4=C3C=CC=N4)C5=CC(=CC=C5)NC(=O)C6=CN=C(C=C6)N + NC(=O)Nc1cc(-c2cccc(F)c2)sc1C(=O)N[C@H]1CCCNC1 [AZD7762] (partner 0.2 µM)
Summary of the method: as §1

Cell Line	relative viability ([1]; first compound 0.08 µM)	relative viability ([1]; first compound 0.8 µM)	relative viability ([1]; first compound 2.53 µM)	relative viability ([1]; first compound 8 µM)	relative viability ([2]; first compound 0.02 µM)	relative viability ([2]; first compound 0.06325 µM)	relative viability ([2]; first compound 0.2 µM)	relative viability ([2]; first compound 0.6325 µM)	relative viability ([2]; first compound 2 µM)	relative viability ([3]; first compound 0.08 µM)	relative viability ([3]; first compound 0.8 µM)	relative viability ([3]; first compound 2.53 µM)	relative viability ([3]; first compound 8 µM)	relative viability ([4]; first compound 0.02 µM)	relative viability ([4]; first compound 0.06325 µM)	relative viability ([4]; first compound 0.2 µM)	relative viability ([4]; first compound 0.6325 µM)	relative viability ([4]; first compound 2 µM)
201T	0.36	0.346	0.342	0.327	0.384	0.376	0.426	0.378	0.373	1.05	1.01	0.968	0.87	0.655	0.626	0.603	0.509	0.534
A549	–	–	–	–	–	–	–	–	–	0.672	0.574	0.518	0.48	–	–	–	–	–
A-427	0.567	0.541	0.547	0.456	0.555	0.537	0.463	0.401	0.368	1.13	1.19	1.16	1.07	0.788	0.746	0.673	0.655	0.689
ABC-1	0.661	0.98	0.501	0.431	0.591	0.788	0.61	0.658	0.41	0.745	0.895	0.883	0.742	0.793	0.638	0.608	1.03	0.684
BEN	0.447	0.476	0.457	0.47	0.543	0.466	0.457	0.454	0.4	0.931	0.789	0.796	0.646	0.726	0.636	0.66	0.621	0.657
CAL-12T	0.425	0.518	0.641	0.418	0.516	0.602	0.637	0.384	0.266	0.916	0.821	0.821	0.756	0.632	0.617	0.632	0.673	0.49
COR-L23	0.282	0.309	0.32	0.247	0.31	0.249	0.253	0.139	0.0938	0.886	0.965	0.864	0.668	–	–	–	–	–
COR-L 105	0.477	0.388	0.396	0.355	0.376	0.406	0.38	0.43	0.355	1.1	0.927	0.874	0.717	–	–	–	–	–
Calu-6	–	–	–	–	–	–	–	–	–	1.07	0.986	0.997	0.818	–	–	–	–	–
ChaGo-K-1	0.911	0.974	0.967	0.911	0.976	0.931	0.989	0.852	0.75	–	–	–	–	0.892	0.93	0.84	0.886	0.635
EBC-1	–	–	–	–	–	–	–	–	–	0.969	0.85	1.02	0.675	–	–	–	–	–
EKVX	0.436	0.431	0.37	0.318	0.467	0.434	0.343	0.326	0.242	1.1	0.985	1.01	0.863	0.9	0.869	0.747	0.709	0.578
EMC-BAC-2	0.537	0.52	0.518	0.514	0.532	0.468	0.443	0.388	0.294	0.868	0.846	0.838	0.737	1.2	1.11	1.14	1.01	1.01
EPLC-272H	0.32	0.336	0.354	0.226	0.406	0.334	0.364	0.282	0.215	1.18	1.19	1.34	1.11	0.217	–	0.251	0.23	0.19
H3255	0.363	0.34	0.328	0.311	0.339	0.345	0.348	0.301	0.27	1.1	1.04	0.921	0.792	0.923	0.959	0.856	0.859	0.7
HARA	0.308	0.289	0.261	0.264	0.301	0.298	0.258	0.272	0.266	1.11	0.921	0.909	0.945	0.382	0.41	0.305	0.403	0.359
HCC-15	0.694	0.666	0.772	0.51	0.734	0.674	0.572	0.454	0.273	0.866	0.942	0.87	0.657	1.29	1.28	1.24	1.06	0.982
HCC-44	0.976	0.995	0.953	0.919	1.01	0.833	0.903	0.84	0.826	0.73	0.709	0.644	0.641	0.907	1.05	1.04	0.991	1.14
HCC-78	0.481	0.428	0.446	0.458	0.523	0.462	0.491	0.468	0.531	0.582	0.432	0.449	0.403	0.628	0.642	0.576	0.685	0.589
HCC-366	0.395	0.476	0.368	0.33	0.344	0.348	0.133	0.111	0.0439	0.731	0.697	0.633	0.413	0.329	0.419	0.213	0.216	0.174
HCC-827	0.504	0.513	0.509	0.383	0.407	0.436	0.336	0.311	0.184	0.961	0.978	0.952	0.875	0.191	0.184	0.167	0.202	0.198
HOP-62	0.548	0.428	0.423	0.379	0.409	0.44	0.45	0.195	0.162	0.823	0.877	1.23	1.04	0.732	0.494	0.434	0.633	0.291
IA-LM	–	–	–	–	–	–	–	–	–	0.732	0.603	0.593	0.692	–	–	–	–	–

Cell Line	relative viability ([1]; first compound 0.08 µM)	relative viability ([1]; first compound 0.8 µM)	relative viability ([1]; first compound 2.53 µM)	relative viability ([1]; first compound 8 µM)	relative viability ([2]; first compound 0.02 µM)	relative viability ([2]; first compound 0.06325 µM)	relative viability ([2]; first compound 0.2 µM)	relative viability ([2]; first compound 0.6325 µM)	relative viability ([2]; first compound 2 µM)	relative viability ([3]; first compound 0.08 µM)	relative viability ([3]; first compound 0.8 µM)	relative viability ([3]; first compound 2.53 µM)	relative viability ([3]; first compound 8 µM)	relative viability ([4]; first compound 0.02 µM)	relative viability ([4]; first compound 0.06325 µM)	relative viability ([4]; first compound 0.2 µM)	relative viability ([4]; first compound 0.6325 µM)	relative viability ([4]; first compound 2 µM)
LC-2-ad	0.495	0.535	0.457	0.467	0.473	0.412	0.417	0.421	0.323	0.842	0.959	0.911	0.639	0.939	0.9	0.831	0.805	0.585
LCLC-97TM1	0.252	0.231	0.198	0.228	0.21	0.213	0.236	0.277	0.18	0.193	0.154	0.187	0.16	0.19	0.236	0.231	0.258	0.256
LCLC-103H	0.524	0.456	0.475	0.401	0.526	0.438	0.406	0.429	0.427	1.07	0.972	1.1	0.979	0.809	0.784	0.8	0.81	0.631
LK-2	0.513	0.735	0.647	0.534	0.77	0.673	0.651	0.496	0.211	0.697	0.773	0.523	0.418	0.427	0.406	0.378	0.416	0.221
NCI-H520	0.267	0.219	0.191	0.16	0.195	0.237	0.32	0.355	0.236	1.17	1.02	1.05	0.848	–	–	–	–	–
NCI-H522	1.22	1.25	0.953	0.731	1.01	1.15	1.13	1.01	0.97	–	–	–	–	0.708	0.867	0.773	0.834	0.684
NCI-H596	–	–	–	–	–	–	–	–	–	1.05	0.999	0.981	0.943	1.15	1.06	0.97	1.06	0.929
NCI-H661	0.415	0.399	0.412	0.338	0.411	0.464	0.429	0.391	0.355	0.74	0.643	0.545	0.502	–	–	–	–	–
NCI-H1299	–	–	–	–	–	–	–	–	–	1.02	0.972	0.966	0.921	–	–	–	–	–
NCI-H1563	–	–	–	–	–	–	–	–	–	1.14	1.19	1.16	1.08	–	–	–	–	–
NCI-H1648	0.286	0.327	0.226	0.319	0.297	0.25	0.259	0.247	0.258	–	–	–	–	0.619	0.747	0.641	0.698	0.539
NCI-H1650	0.373	0.354	0.344	0.228	0.352	0.299	0.334	0.283	0.162	–	–	–	–	–	–	–	–	–
NCI-H1703	–	–	–	–	–	–	–	–	–	0.662	0.979	0.433	0.13	0.143	0.146	0.127	0.108	0.124
NCI-H2009	0.251	0.151	0.166	0.174	0.189	0.301	0.187	0.253	0.214	1.22	1.16	1.3	1.09	–	–	–	–	–
NCI-H2023	0.38	0.396	0.354	0.266	0.319	0.312	0.258	0.151	0.0658	0.727	0.77	0.666	0.444	–	–	–	–	–
NCI-H2170	0.376	0.349	0.408	0.364	0.387	0.362	0.314	0.252	0.216	–	–	–	–	0.914	1.05	0.798	0.837	0.488
NCI-H2228	0.787	1.1	0.715	0.537	0.617	0.747	0.691	0.35	0.244	0.881	0.541	0.557	0.276	–	–	–	–	–
NCI-H2342	0.609	0.539	0.55	0.535	0.528	0.523	0.53	0.49	0.485	–	–	–	–	0.498	0.525	0.476	0.565	0.463
SK-LU-1	0.425	0.306	0.415	0.371	0.361	0.395	0.361	0.311	0.316	1.33	1.24	1.06	0.633	–	–	–	–	–
SK-MES-1	0.379	0.315	0.327	0.241	0.31	0.395	0.394	0.43	0.422	1.09	1.09	1.14	1.03	–	–	–	–	–
SW 900	0.599	0.633	0.571	0.395	0.547	0.582	0.576	0.509	0.344	–	–	–	–	0.63	0.606	0.505	0.522	0.429
SW 1573	0.441	0.351	0.363	0.245	0.322	0.486	0.434	0.428	0.311	0.94	0.777	0.765	0.741	–	–	–	–	–
